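Test compounds were applied to cells in 96-well plates for 48 hours at 5 doses. Abbreviation: GI50, concentration required for 50% inhibition of growth. The concentration for full growth arrest is given as TGI.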
Key:
Assay in all cases: NCI tumour cell line growth inhibition, 48 h
T-47D breast = tested on: T-47D breast
OVCAR-4 ovarian = tested on: OVCAR-4 ovarian
HCT-15 colon = tested on: HCT-15 colon
LOX IMVI melanoma = tested on: LOX IMVI melanoma
OVCAR-8 ovarian = tested on: OVCAR-8 ovarian
UO-31 renal = tested on: UO-31 renal
OVCAR-3 ovarian = tested on: OVCAR-3 ovarian
DU-145 prostate = tested on: DU-145 prostate
SNB-19 CNS = tested on: SNB-19 CNS
UACC-257 melanoma = tested on: UACC-257 melanoma
SF-539 CNS = tested on: SF-539 CNS
HS 578T breast = tested on: HS 578T breast
BT-549 breast = tested on: BT-549 breast
UACC-62 melanoma = tested on: UACC-62 melanoma
SK-MEL-2 melanoma = tested on: SK-MEL-2 melanoma
NCI-H23 lung = tested on: NCI-H23 lung
ACHN renal = tested on: ACHN renal
SK-MEL-28 melanoma = tested on: SK-MEL-28 melanoma
M14 melanoma = tested on: M14 melanoma
CCRF-CEM leukemia = tested on: CCRF-CEM leukemia
OVCAR-5 ovarian = tested on: OVCAR-5 ovarian
MALME-3M melanoma = tested on: MALME-3M melanoma
HOP-62 NSCLC = tested on: HOP-62 NSCLC
HOP-92 NSCLC = tested on: HOP-92 NSCLC
NCI-H460 lung = tested on: NCI-H460 lung
CAKI-1 renal = tested on: CAKI-1 renal
TK-10 renal = tested on: TK-10 renal
SF-295 CNS = tested on: SF-295 CNS
SF-268 CNS = tested on: SF-268 CNS
A549 NSCLC = tested on: A549 NSCLC
U251 CNS = tested on: U251 CNS
SNB-75 CNS = tested on: SNB-75 CNS
SK-OV-3 ovarian = tested on: SK-OV-3 ovarian
EKVX NSCLC = tested on: EKVX NSCLC
HT29 colon = tested on: HT29 colon
HCT-116 colon = tested on: HCT-116 colon
COLO 205 colon = tested on: COLO 205 colon
PC-3 prostate = tested on: PC-3 prostate
MOLT-4 leukemia = tested on: MOLT-4 leukemia
RXF 393 renal = tested on: RXF 393 renal
MDA-MB-435 = tested on: MDA-MB-435
K-562 leukemia = tested on: K-562 leukemia
786-0 renal = tested on: 786-0 renal
SW-620 colon = tested on: SW-620 colon
HCC-2998 colon = tested on: HCC-2998 colon
SR leukemia = tested on: SR leukemia
NCI/ADR-RES ovarian = tested on: NCI/ADR-RES ovarian
RPMI-8226 leukemia = tested on: RPMI-8226 leukemia
IGROV1 ovarian = tested on: IGROV1 ovarian
HL-60(TB) leukemia = tested on: HL-60(TB) leukemia
NCI-H522 lung = tested on: NCI-H522 lung
A498 renal = tested on: A498 renal
SK-MEL-5 melanoma = tested on: SK-MEL-5 melanoma
KM12 colon = tested on: KM12 colon
MDA-MB-231 breast = tested on: MDA-MB-231 breast
NCI-H226 lung = tested on: NCI-H226 lung
SN12C renal = tested on: SN12C renal

For C=CCOC1=CC(=O)c2ccccc2C1=O, the GI50 (T-47D breast) was 2.52 µM, the TGI (T-47D breast) was 7.85 µM and the GI50 (OVCAR-4 ovarian) was 1.57 µM. The TGI (OVCAR-4 ovarian) was 2.95 µM, the GI50 (HCT-15 colon) was 2.1 µM and the TGI (HCT-15 colon) was 4.64 µM. It also gave a GI50 (LOX IMVI melanoma) of 1.71 µM, a TGI (LOX IMVI melanoma) of 3.65 µM and a GI50 (OVCAR-8 ovarian) of 3.37 µM. It also gave a TGI (OVCAR-8 ovarian) of 12.9 µM, a GI50 (UO-31 renal) of 2.25 µM and a TGI (UO-31 renal) of 7.4 µM. The GI50 (OVCAR-3 ovarian) was 2.51 µM, the TGI (OVCAR-3 ovarian) was 5.44 µM and the GI50 (DU-145 prostate) was 2.11 µM. The TGI (DU-145 prostate) was 3.72 µM, the GI50 (SNB-19 CNS) was 12.9 µM and the TGI (SNB-19 CNS) was 29.2 µM. It also gave a GI50 (UACC-257 melanoma) of 1.66 µM, a TGI (UACC-257 melanoma) of 3.72 µM and a GI50 (SF-539 CNS) of 2.37 µM. The TGI (SF-539 CNS) was 6.01 µM, the GI50 (HS 578T breast) was 4.58 µM and the TGI (HS 578T breast) was 43.2 µM. For the same compound, the GI50 (BT-549 breast) was 11.1 µM, the TGI (BT-549 breast) was 23.2 µM and the GI50 (UACC-62 melanoma) was 2.01 µM. The TGI (UACC-62 melanoma) was 4.05 µM, the GI50 (SK-MEL-2 melanoma) was 2.34 µM and the TGI (SK-MEL-2 melanoma) was 4.46 µM. For the same compound, the GI50 (NCI-H23 lung) was 1.76 µM, the TGI (NCI-H23 lung) was 3.41 µM and the GI50 (ACHN renal) was 3.23 µM. The TGI (ACHN renal) was 11.9 µM, the GI50 (SK-MEL-28 melanoma) was 2.38 µM and the TGI (SK-MEL-28 melanoma) was 4.44 µM. The GI50 (M14 melanoma) was 2.11 µM, the TGI (M14 melanoma) was 4.35 µM and the GI50 (CCRF-CEM leukemia) was 4.37 µM. The TGI (CCRF-CEM leukemia) was 41.1 µM, the GI50 (OVCAR-5 ovarian) was 2.38 µM and the TGI (OVCAR-5 ovarian) was 5.46 µM. The GI50 (MALME-3M melanoma) was 1.89 µM, the TGI (MALME-3M melanoma) was 3.54 µM and the GI50 (HOP-62 NSCLC) was 1.82 µM. For the same compound, the TGI (HOP-62 NSCLC) was 3.43 µM, the GI50 (HOP-92 NSCLC) was 4.42 µM and the TGI (HOP-92 NSCLC) was 15.4 µM. It also gave a GI50 (NCI-H460 lung) of 11.6 µM, a TGI (NCI-H460 lung) of 31.1 µM and a GI50 (CAKI-1 renal) of 15.8 µM. The TGI (CAKI-1 renal) was 68.7 µM, the GI50 (TK-10 renal) was 15.4 µM and the TGI (TK-10 renal) was 28.9 µM. For the same compound, the GI50 (SF-295 CNS) was 2.12 µM, the TGI (SF-295 CNS) was 4.75 µM and the GI50 (SF-268 CNS) was 4.21 µM. It also gave a TGI (SF-268 CNS) of 14.5 µM, a GI50 (A549 NSCLC) of 2.12 µM and a TGI (A549 NSCLC) of 4.85 µM. For the same compound, the GI50 (U251 CNS) was 2.71 µM, the TGI (U251 CNS) was 6.65 µM and the GI50 (SNB-75 CNS) was 2.11 µM. The TGI (SNB-75 CNS) was 4.08 µM, the GI50 (SK-OV-3 ovarian) was 3.59 µM and the TGI (SK-OV-3 ovarian) was 12.3 µM. For the same compound, the GI50 (EKVX NSCLC) was 4.75 µM, the TGI (EKVX NSCLC) was 26.9 µM and the GI50 (HT29 colon) was 2.39 µM. The TGI (HT29 colon) was 5.53 µM, the GI50 (HCT-116 colon) was 2.68 µM and the TGI (HCT-116 colon) was 6.69 µM. The GI50 (COLO 205 colon) was 1.7 µM, the TGI (COLO 205 colon) was 3.29 µM and the GI50 (PC-3 prostate) was 4.29 µM. The TGI (PC-3 prostate) was 24.5 µM, the GI50 (MOLT-4 leukemia) was 5.36 µM and the TGI (MOLT-4 leukemia) was 40.4 µM. For the same compound, the GI50 (RXF 393 renal) was 2.45 µM, the TGI (RXF 393 renal) was 6.03 µM and the GI50 (MDA-MB-435) was 1.94 µM. For the same compound, the TGI (MDA-MB-435) was 3.64 µM, the GI50 (K-562 leukemia) was 3.62 µM and the TGI (K-562 leukemia) was 16.5 µM. The GI50 (786-0 renal) was 4.88 µM, the TGI (786-0 renal) was 15.6 µM and the GI50 (SW-620 colon) was 2.31 µM. For the same compound, the TGI (SW-620 colon) was 4.84 µM, the GI50 (HCC-2998 colon) was 8.59 µM and the TGI (HCC-2998 colon) was 21.9 µM. It also gave a GI50 (SR leukemia) of 2.24 µM, a TGI (SR leukemia) of 7.61 µM and a GI50 (NCI/ADR-RES ovarian) of 2.68 µM. It also gave a TGI (NCI/ADR-RES ovarian) of 7 µM, a GI50 (RPMI-8226 leukemia) of 3.2 µM and a GI50 (IGROV1 ovarian) of 4.34 µM. It also gave a TGI (IGROV1 ovarian) of 13.9 µM, a GI50 (HL-60(TB) leukemia) of 2.75 µM and a TGI (HL-60(TB) leukemia) of 6.61 µM. For the same compound, the GI50 (NCI-H522 lung) was 2.05 µM, the TGI (NCI-H522 lung) was 3.9 µM and the GI50 (A498 renal) was 1.42 µM. It also gave a TGI (A498 renal) of 19.8 µM, a GI50 (SK-MEL-5 melanoma) of 1.63 µM and a TGI (SK-MEL-5 melanoma) of 3.01 µM. For the same compound, the GI50 (KM12 colon) was 3.23 µM, the TGI (KM12 colon) was 9.26 µM and the GI50 (MDA-MB-231 breast) was 5.27 µM. The TGI (MDA-MB-231 breast) was greater than 100 µM, the GI50 (NCI-H226 lung) was 1.88 µM and the TGI (NCI-H226 lung) was 4.12 µM. For the same compound, the GI50 (SN12C renal) was 2.75 µM and the TGI (SN12C renal) was 6.45 µM.
